Here are results for 3 molecules from patent publication US10407445B2, “Hepatitis C virus inhibitors” (ENANTA PHARMACEUTICALS, INC., priority 2013, dated 2019).

What all share (assay type): cell-based
In one experiment the test system is HCV GT 1b replicon. Put plainly: HCV replicon assay, stable GT 1b replicon (Renilla luciferase). Conditions: Hepatitis C virus, GT1B, 72 h. Summed up:
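Stable Huh-7.5-based GT1b replicon (Con1-derived) carrying hRluc-Neo, 4000 cells/well seeded onto a sixteen-point half-log compound series in G418-free, phenol red-free medium. After 72 h, Renilla luciferase is read relative to DMSO controls; CC50 in the same cells by CellTiter-Glo.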
In general terms: Replicon systems follow genome replication, usually without infectious particles.

For experiment [1], the system named is GT1a replicon encoding NS5A mutation M28T. Put plainly: Transient replication assay, GT1a replicon with NS5A mutation M28T. Conditions: Hepatitis C virus, read-out: EC50 1a M28T.
Another experiment relates to HCV GT 2a-J6 replicon. Put plainly: HCV replicon assay, GT2a chimeric replicon expressing NS5A from GT2a strain J6. Conditions: Hepatitis C virus, 72 h, read-out: EC50 2a J6. A digest of the protocol:
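Stable Huh-7.5 lines carried JFH-1 subgenomic replicons with hRluc-Neo reporter, in which NS5A was swapped for GT3a strain S52 or GT2a strain J6 NS5A. Renilla luciferase was read after 72 h relative to DMSO controls.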

Experiment [2] has as its system GT1a replicon encoding NS5A mutation L31V. Put plainly: Transient replication assay, GT1a replicon with NS5A mutation L31V. To be noted: Hepatitis C virus, read-out: EC50 1a L31V.
Experiment [3] deals with GT1a replicon encoding NS5A mutation Y93C. Briefly: Transient replication assay, GT1a replicon with NS5A mutation Y93C. Conditions: Hepatitis C virus, read-out: EC50 1a Y93C.

The structures appear in SMILES notation.

As for `COC(=O)N[C@H](C(=O)N1CC2(CC2)C[C@H]1c1ncc(-c2ccc(-c3ccc4c(ccc5nc([C@@H]6C[C@@]7(CCCOC7)CN6C(=O)[C@@H](NC(=O)OC)C(C)C)[nH]c54)c3)cc2)[nH]1)C(C)C` [Compound 8], the EC50 (commonly the concentration giving half of the maximal effect) in the experiment on HCV GT 1b replicon turned out to be 0.01 nM; in experiment [1], 0.06 nM; in the experiment on HCV GT 2a-J6 replicon, 8 nM; in experiment [2], 0.2 nM; in experiment [3], 0.1 nM.

For the molecule `COC(=O)N[C@H](C(=O)N1C[C@]2(CCCOC2)C[C@H]1c1ncc(-c2ccc(-c3ccc4c(c3)OCc3nc([C@@H]5C[C@@H]6CCCC[C@@H]6N5C(=O)[C@@H](NC(=O)OC)C(C)C)[nH]c3-4)cc2)[nH]1)C(C)C` [Compound 42], the EC50 in the experiment on HCV GT 1b replicon stood at 0.006 nM; in experiment [1] it was 0.2 nM; in the experiment with HCV GT 2a-J6 replicon it was 2 nM; in experiment [2] it was 0.2 nM; in experiment [3] it was 0.6 nM.

In the case of `COC(=O)N[C@H](C(=O)N1C[C@]2(CCCOC2)C[C@H]1c1ncc(-c2ccc(-c3ccc4c(ccc5nc([C@@H]6C[C@@H]7CCCC[C@@H]7N6C(=O)[C@@H](NC(=O)OC)C(C)C)[nH]c54)c3)cc2)[nH]1)C(C)C` [Compound 29], the EC50 was 0.004 nM in the experiment with HCV GT 1b replicon; 0.02 nM in experiment [1]; 2 nM in the experiment with HCV GT 2a-J6 replicon; 0.1 nM in experiment [2]; 0.1 nM in experiment [3].
